Source: ChEMBL document CHEMBL4837221 (Eur J Med Chem, 2021)
The source made the active and inactive calls. The calls are words filed in the database; no cut-off is given here.

What was measured:
U-251 [1] = assay: Inhibition of TrxR in human U-251 cells at 10 uM measured after 12 hrs by colorimetry; assay type: cell-based
A549 = assay: Cytotoxicity against human A549 cells assessed as reduction in cell viability incubated for 72 hrs by MTT assay; assay type: functional, cell-based; conditions: A549, 72 h
MDA-MB-231 = assay: Cytotoxicity against human MDA-MB-231 cells assessed as reduction in cell viability incubated for 72 hrs by MTT assay; assay type: functional, cell-based; conditions: MDA-MB-231, 72 h
K562 = assay: Cytotoxicity against human K562 cells assessed as reduction in cell viability incubated for 72 hrs by MTT assay; assay type: functional, cell-based; conditions: K562, 72 h
U-251 [2] = assay: Cytotoxicity against human U-251 cells assessed as reduction in cell viability incubated for 72 hrs by MTT assay; assay type: functional, cell-based; conditions: U-251, 72 h
HepG2 = assay: Cytotoxicity against human HepG2 cells assessed as reduction in cell viability incubated for 72 hrs by MTT assay; assay type: functional, cell-based; conditions: HepG2, 72 h
U-87 MG = assay: Cytotoxicity against human U87 cells assessed as reduction in cell viability incubated for 72 hrs by MTT assay; assay type: functional, cell-based, U-87MG ATCC
[3] = Cytotoxicity against human SHG-44 cells assessed as reduction in cell viability incubated for 72 hrs by MTT assay; assay type: functional, cell-based; conditions: SHG-44, 72 h
C6 = assay: Cytotoxicity against rat C6 cells assessed as reduction in cell viability incubated for 72 hrs by MTT assay; assay type: functional, cell-based; conditions: C6, 72 h
[4] = Cytotoxicity against human […] cells assessed as reduction in cell viability incubated for 72 hrs by MTT assay; assay type: functional, cell-based
[5] = Cytotoxicity against human U87/TMZ cells assessed as reduction in cell viability incubated for 72 hrs by MTT assay; assay type: functional, cell-based
HUVEC = assay: Cytotoxicity against HUVEC cells assessed as reduction in cell viability incubated for 72 hrs by MTT assay; assay type: cell-based; conditions: Homo sapiens
[6] = Inhibition of rat liver TrxR using DTNB and NADPH as substrate preincubated for 10 mins followed by substrate addition; assay type: tissue-based
U-251 [7] = assay: Inhibition of mitochondrial respiration in human U-251 cells assessed as reduction in oxygen consumption rate at 10 uM pretreated for 24 hrs with sequential addition of oligomycin, FCCP and antimycin-A by seahorse XFe96 analyser based assay; assay type: functional, cell-based
U-251 [8] = assay: Induction of mitochondrial stress in human U-251 cells assessed as decrease in ATP production after 24 hrs by microplate reader analysis; assay type: functional, cell-based

| Structure (SMILES) | inhibition (U-251 [1]) | IC50 (A549) | IC50 (MDA-MB-231) | IC50 (K562) | IC50 (U-251 [2]) | IC50 (HepG2) | IC50 (U-87 MG) | IC50 [3] | IC50 (C6) | IC50 [4] | IC50 [5] | IC50 (HUVEC) | IC50 [6] | Activity (U-251 [7]) | Activity (U-251 [8]) |
| --- | --- | --- | --- | --- | --- | --- | --- | --- | --- | --- | --- | --- | --- | --- | --- |
| COc1cc(/C=C/C(=O)/C=C(O)/C=C/c2ccc(O)cc2)ccc1O | Active | 5.64 µM | 9.36 µM | 3.86 µM | 2.72 µM | 10.7 µM | 5.45 µM | 4.98 µM | 7.16 µM | 17.3 µM | 21.5 µM | 32.6 µM | 0.77 µM | inactive | inactive |
| OCCCCCCCCCC[P+](c1ccccc1)(c1ccccc1)c1ccccc1 | – | > 100 µM | > 100 µM | > 100 µM | > 100 µM | > 100 µM | – | – | – | – | – | – | > 100 µM | – | – |
| COc1cc(/C=C/C(=O)CC(=O)/C=C/c2ccc(O)c(OC)c2)ccc1O [CURCUMIN] | – | 24.2 µM | 31.4 µM | 46.8 µM | 25.8 µM | – | – | – | – | – | – | – | – | – | – |
